For 12 compounds, IC50 results are on record in US11161830B2, “4-pyridone compound or salt thereof, and pharmaceutical composition and formulation including same” (priority 2017, dated 2021).

Molecules are shown by their SMILES. Read-outs that look alike come from different tables or passages of the source.

Common to all, as to format: cell-based, hepatitis B virus
For assay [1], the system named is HBV. The experiment in a line: Test Example 1-2: anti-HBV assay in HepG2.2.15 cells (test solution 100 μL/well). The conditions noted are these: culture supernatant. How it is done:
(§1) Using HepG2.2.15 cells (Proc. Natl. Acad. Sci. USA, 84, 1005-1009, 1987) which have an HBV genome introduced into a hepatoblastoma cell line, HepG2, and persistently produce a virus, the anti-HBV activity of the representative compounds was evaluated in the following procedure.
(§2) The following was used as a medium:
(§3) DMEM/F-12, GlutaMAX (manufactured by Invitrogen)+5 μg/mL insulin (manufactured by Wako)+1% penicillin/streptomycin (manufactured by Sigma)+10 mmol/L HEPES (manufactured by Sigma)+50 μmol/L hydrocortisone (manufactured by Sigma)+10% FBS
(§4) A mixture of a test compound with dimethyl sulfoxide (DMSO) was further added to the medium to obtain a final concentration of DMSO of 0.25% (v/v), and thus, test solutions containing the test compound at various concentrations were prepared. In addition, a test solution obtained by adding DMSO alone to the medium to obtain a final concentration of 0.25% (v/v) was prepared as a control without addition of a drug.
(§5) (1) The HepG2.2.15 cells were suspended in the medium to prepare a. HepG2.2.15 cell suspension at 4×10^5 cells/mL. The suspension was seeded in a 96-well microtiter plate (100 μL/well) and the plate was incubated in a 5% CO2 incubator at 37° C. for 2 days.
(§6) (2) The culture supernatant was removed and the cells were washed twice with PBS (−) (100 μL/well).
(§7) (3) The test solution (200 μL/well) was added to the plate of (2) and the plate was incubated in a 5% CO2 incubator at 37° C. for 4 days.
(§8) (4) The culture supernatant was removed, the test solution (200 μL/well) was added again to the plate, and the plate was incubated in a 5% CO2 incubator at 37° C. for 3 days.
(§9) (5) The culture supernatant was collected and treated with a mixture of Buffer AL (manufactured by QIAGEN) and Proteinase K (manufactured by Invitrogen). The amount of DNA of HBV (HBV-DNA) in the obtained solution was absolutely quantified by a real-time PCR method. In addition, HBsAg (hepatitis B surface antigen) in the culture supernatant was absolutely quantified by chemiluminescent enzyme immunoassay using Lumipulse (registered trademark) HBsAg-HQ (manufactured by Fujirebio Inc.). The relative viral load (%) of a well with the compound added to a well without the compound added was calculated. An IC50 of the compound was calculated using a FORECAST function (linear regression method) of Microsoft Office Excel 2007 by plotting the logarithm of the concentration against the relative viral load as a real number.
(§10) The IC50 of HBV-DNA was defined as a concentration (or a logarithm dilution of the culture supernatant) of the compound, in which the amount of HBV-DNA is reduced by 50% as compared a control without the compound added.
(§11) In addition, the IC50 of HBsAg was defined as a concentration (or a logarithm dilution of the culture supernatant) of the compound, in which the amount of HBsAg is reduced by 50% as compared a control without the compound added.
The test was performed by the same method as in Test Example 1-1 except that the amounts of the test solutions of (3) and (4) of Test Example 1-1 was changed to 100 μL/well.

In assay [2] the test system is HBV. The experiment in a line: Test Example 1-1: anti-HBV assay in HepG2.2.15 cells (test solution 200 μL/well). Conditions: Hepatitis B virus, culture supernatant. How it is done:
as §1, §2, §3, §4, §5, §6, §7, §8, §9, §10, §11

A further assay deals with HBV (genotype AeUS). The experiment in a line: Test Example 2-1: anti-HBV assay in PXB-cells (fresh human hepatocytes). Conditions: Hepatitis B virus, Hepatocyte, PXB-cells infected with HBV genotype AeUS, culture supernatant on day 32 post infection. How it is done: Using fresh human hepatocytes (PXB-cells, manufactured by PhenixBio Co., Ltd.) collected from a PXB mouse (a chimeric mouse with human hepatocytes), the anti-HBV activity of the representative compounds was evaluated in the following procedure.
as §2
DMEM (manufactured by Sigma)+0.25 μg/mL insulin (manufactured by Wako)+1% penicillin/streptomycin. (manufactured by Sigma)+20 mmol/L HEPES (manufactured by Sigma)+15 μg/mL L-proline (manufactured by Sigma)+50 nmol/L dexamethasone (manufactured by Sigma)+5 ng/mL EGF (manufactured by Peprotech)+0.1 mmol/L ascorbic acid 2-phosphate (manufactured by Wako)+10% FBS+2% DMSO
Each of the test compounds) was further added to the medium to prepare a test solution containing each of the test compounds at various concentrations.
(1) PXB-cells seeded at a seeding density of 2.1×10^5 cells/cm^2 in a 96-well microliter plate were incubated in a 5% CO2 incubator at 37° C. until a day on which the cells were infected.
(2) HBV (genotype AeUS) derived from a PXB mouse serum was suspended in the medium containing 4% PEG-8000, and added to the plate of (1) at about 10 copies/cell such that the PXB cells were infected (100 μL/well), and the plate was incubated in a 5% CO2 incubator at 37° C. for 1 day.
(3) The culture supernatant on day 1 post infection was removed and the cells were washed three times with DMEM containing 10% FBS and 1% penicillin/streptomycin. Then, the medium was added to the plate (100 μL/well) and the plate was incubated in a 5% CO2 incubator at 37° C. for 1 day.
(4) The culture supernatant on day 2 post infection was removed and the cells were washed three times with DMEM containing 10% FBS and 1% penicillin/streptomycin. Then, the medium was added to the plate (100 μL/well) and the plate was incubated in a 5% CO2 incubator at 37° C. for 5 days.
(5) The culture supernatant on day 7 post infection was removed, the medium was added to the plate (100 μL/well), and the plate was incubated in a 5% CO2 incubator at 37° C. for 5 days.
(6) The culture supernatant on day 12 post infection was removed, the medium was added to the plate (100 μL/well), and the plate was incubated in a 5% CO2 incubator at 37° C. for 5 days.
(7) The culture supernatant on day 17 post infection was removed, the test solution was added to the plate (100 μL/well), and the plate was incubated in a 5% CO2 incubator at 37° C. for 5 days. As a control without the compound added, the medium was added to the plate (100 μL/well) and the plate was incubated in a 5% CO2 incubator at 37° C. for 5 days.
(8) The culture supernatant on day 22 post infection was removed, the test solution was added to the plate (100 μL/well), and the plate was incubated in a 5% CO2 incubator at 37° C. for 5 days. As a control without the compound added, the medium was added to the plate (100 μL/well) and the plate was incubated in a 5% CO2 incubator at 37° C. for 5 days.
(9) The culture supernatant on day 27 post infection was removed, the test solution was added to the plate (100 μL/well), and the plate was incubated in a 5% CO2 incubator at 37° C. for 5 days. As a control without the compound added, the medium was added to the plate (100 μL/well) and the plate was incubated in a 5% CO2 incubator at 37° C. for 5 days.
(10) The culture supernatant on day 32 post infection was collected.
(11) The collected culture supernatant on day 32 post infection was purified with a QIAamp (registered trademark) DNA Blood Mini Kit (manufactured by QIAGEN). The amount of HBV-DNA in the obtained solution was absolutely quantified by a real-time PCR method. In addition, the amount of HBsAg in the culture supernatant was absolutely quantified by chemiluminescent enzyme immunoassay using Lumipulse (registered trademark) HBsAg-HQ (manufactured by Fujirebio Inc.). A relative viral load (%) with respect to a control without the compound added was each calculated. […]

Setting [3] is: Hepatitis B virus, read-out: IC50 HBV-DNA.
[4] abbreviates: Hepatitis B virus, read-out: IC50 HBsAg.

With `CCOC1CN(c2nc3ccc(-n4cc(C(=O)O)c(=O)cc4-c4ccc(N5CC[C@@H](OC)C5)c(F)c4)cc3s2)C1` [Example 23-6, (R)-1-(2-(3-ethoxyazetidin-1-yl)benzo[d]thiazol-6-yl)-6-(3-fluoro-4-(3-methoxypyrrolidin-1-yl)phenyl)-4-oxo-1,4-dihydropyridine-3-carboxylic acid], the IC50 – broadly, the concentration that gives 50% inhibition – with HBV [1] (setting [3]) worked out at 0.45 nM; with HBV [1] (setting [4]) it was 1.1 nM.

Turning to `CO[C@@H]1CCN(c2ccc(-c3cc(=O)c(C(=O)O)cn3-c3ccc4nc(N5CC(OC(F)F)C5)sc4c3)cc2F)C1` [Example 23-2, (R)-1-(2-(3-(difluoromethoxy)azetidin-1-yl)benzo[d]thiazol-6-yl)-6-(3-fluoro-4-(3-methoxypyrrolidin-1-yl)phenyl)-4-oxo-1,4-dihydropyridine-3-carboxylic acid], the IC50 in the assay on HBV [1] (setting [3]) came to 0.96 nM; in the assay with HBV [1] (setting [4]), 2.8 nM.

Regarding `COCCCOC1CN(c2nc3ccc(-n4cc(C(=O)O)c(=O)cc4-c4ccc(N5CC[C@@H](OC)C5)c(F)c4)cc3s2)C1` [Example 23-5], the IC50 with HBV [1] (read-out: IC50 HBV-DNA) stood at 0.5 nM; in the assay with HBV [1] (read-out: IC50 HBsAg), 2.7 nM.

For `CO[C@@H]1CCN(c2ccc(-c3cc(=O)c(C(=O)O)cn3-c3ccc4nc(N5CC(C)(OC)C5)sc4c3)cc2F)C1` [Example 23-8, (R)-6-(3-fluoro-4-(3-methoxypyrrolidin-1-yl)phenyl)-1-(2-(3-methoxy-3-methylazetidin-1-yl)benzo[d]thiazol-6-yl)-4-oxo-1,4-dihydropyridine-3-carboxylic acid], the 50% inhibitory concentration (IC50) with HBV [1] (setting [3]) amounted to 0.89 nM; in the assay on HBV [1] (setting [4]), 1.4 nM.

`CO[C@@H]1CCN(c2ccc(-c3cc(=O)c(C(=O)O)cn3-c3ccc4nc(N5CC(OCCF)C5)sc4c3)cc2F)C1` [Example 23-4]: the IC50 amounted to 0.88 nM with HBV [1] (read-out: IC50 HBV-DNA) and 3.8 nM in the assay on HBV [1] (read-out: IC50 HBsAg).

For `COCCO[C@H]1CCN(c2ccc(-c3cc(=O)c(C(=O)O)cn3-c3ccc4nc(N5CCC[C@@H]5COC)sc4c3)cc2)C1` [Example 22-2, 6-(4-((S)-3-(2-methoxyethoxy)pyrrolidin-1-yl)phenyl)-1-(2-((R)-2-(methoxymethyl)pyrrolidin-1-yl)benzo[d]thiazol-6-yl)-4-oxo-1,4-dihydropyridine-3-carboxylic acid], the IC50 in the assay on HBV [1] (setting [3]) amounted to 10 nM; in the assay with HBV [1] (setting [4]), 22 nM.

As to `Cc1nc2ccc(-n3cc(C(=O)O)c(=O)cc3-c3ccc(N4CCCC4)cc3)cc2s1` [Example 3-2, 1-(2-methylbenzo[d]thiazol-6-yl)-4-oxo-6-(4-(pyrrolidin-1-yl)phenyl)-1,4-dihydropyridine-3-carboxylic acid], the IC50 turned out to be 9 nM in the assay on HBV [2] (read-out: IC50 HBV-DNA), 3.1 nM in the assay on HBV [2] (read-out: IC50 HBsAg), 470 nM in the assay on HBV (genotype AeUS) (read-out: IC50 HBV-DNA) and 150 nM in the assay with HBV (genotype AeUS) (read-out: IC50 HBsAg).

`COCCO[C@@H]1CCN(c2ccc(-c3cc(=O)c(C(=O)O)cn3-c3ccc4nc(C)sc4c3)cc2)C1` [Example 9, (R)-6-(4-(3-(2-Methoxyethoxy)pyrrolidin-1-yl)phenyl)-1-(2-methylbenzo[d]thiazol-6-yl)-4-oxo-1,4-dihydropyridine-3-carboxylic acid]: the IC50 in the assay with HBV [2] (read-out: IC50 HBV-DNA) was 55 nM; with HBV [2] (read-out: IC50 HBsAg), 24 nM; in the assay with HBV (genotype AeUS) (read-out: IC50 HBV-DNA), 580 nM; in the assay with HBV (genotype AeUS) (read-out: IC50 HBsAg) it was 330 nM.

`Cc1nc2ccc(-n3cc(C(=O)O)c(=O)cc3-c3ccc(N4CCCC4)c(Br)c3)cc2s1` [Example 5-1, 6-(3-bromo-4-(pyrrolidin-1-yl)phenyl)-1-(2-methylbenzo[d]thiazol-6-yl)-4-oxo-1,4-dihydropyridine-3-carboxylic acid]: the concentration for half-maximal inhibition (IC50) amounted to 3.7 nM in the assay on HBV [2] (read-out: IC50 HBV-DNA), 6.4 nM in the assay on HBV [2] (read-out: IC50 HBsAg), 200 nM with HBV (genotype AeUS) (read-out: IC50 HBV-DNA) and 150 nM in the assay on HBV (genotype AeUS) (read-out: IC50 HBsAg).

With `CO[C@@H]1CCN(c2ccc(-c3cc(=O)c(C(=O)O)cn3-c3ccc4nc(N5CCOCC5)sc4c3)cc2Cl)C1` [Example 11, (R)-6-(3-Chloro-4-(3-methoxypyrrolidin-1-yl)phenyl)-1-(2-morpholinobenzo[d]thiazol-6-yl)-4-oxo-,4-dihydropyridine-3-carboxylic acid], the IC50 was found to be 13 nM with HBV [2] (read-out: IC50 HBV-DNA), 4.9 nM in the assay with HBV [2] (read-out: IC50 HBsAg), 28 nM in the assay on HBV (genotype AeUS) (read-out: IC50 HBV-DNA) and 82 nM with HBV (genotype AeUS) (read-out: IC50 HBsAg).

Turning to `O=C(O)c1cn(-c2ccc3nc(N4CCOCC4)sc3c2)c(-c2ccc(N3CCCC3)c(F)c2)cc1=O` [Example 7, 6-(3-Fluoro-4-(pyrrolidin-1-yl)phenyl)-1-(2-morpholinobenzo[d]thiazol-6-yl)-4-oxo-1,4-dihydropyridine-3-carboxylic acid], the IC50 in the assay on HBV [2] (read-out: IC50 HBV-DNA) came to 1.4 nM; with HBV [2] (read-out: IC50 HBsAg) it was 3.1 nM; in the assay on HBV (genotype AeUS) (read-out: IC50 HBV-DNA), 12 nM; in the assay with HBV (genotype AeUS) (read-out: IC50 HBsAg), 41 nM.

For `COC[C@H]1CCCN1c1nc2ccc(-n3cc(C(=O)O)c(=O)cc3-c3ccc(N4CCCC4)cc3)cc2s1` [Example 3-10, (R)-1-(2-(2-(methoxymethyl)pyrrolidin-1-yl)benzo[d]thiazol-6-yl)-4-oxo-6-(4-(pyrrolidin-1-yl)phenyl)-1,4-dihydropyridine-3-carboxylic acid], the IC50 amounted to 2.8 nM with HBV [2] (read-out: IC50 HBV-DNA), 1.3 nM in the assay on HBV [2] (read-out: IC50 HBsAg), 15 nM in the assay on HBV (genotype AeUS) (read-out: IC50 HBV-DNA) and 39 nM in the assay with HBV (genotype AeUS) (read-out: IC50 HBsAg).
